Literature values in US8697862B2, “Synthesis of galactoside inhibitors” (Galecto Biotech AB, priority 2008, dated 2014).

Molecular target: galectins

Compound	Kd (all galectins) [µM]	affinity, times lower than lactose (relative to lactose)
OC[C@H]1O[C@@H](O[C@H]2[C@H](O)[C@@H](O)C(O)O[C@@H]2CO)[C@H](O)[C@@H](O)[C@H]1O (some centres unmarked) [lactose]	500 to 1000	–
O=C[C@H](O)[C@@H](O)[C@@H](O)[C@H](O)CO [D-galactose]	–	50-100 times
